{"source": "paper PMC7044277", "about": "(Nature Communications, 2020)", "key": {"[1]": {"biological_target": "DRD2 (D2 long receptor) wild-type (Homo sapiens, UniProt P14416)", "sequence (P14416 whole entry)": "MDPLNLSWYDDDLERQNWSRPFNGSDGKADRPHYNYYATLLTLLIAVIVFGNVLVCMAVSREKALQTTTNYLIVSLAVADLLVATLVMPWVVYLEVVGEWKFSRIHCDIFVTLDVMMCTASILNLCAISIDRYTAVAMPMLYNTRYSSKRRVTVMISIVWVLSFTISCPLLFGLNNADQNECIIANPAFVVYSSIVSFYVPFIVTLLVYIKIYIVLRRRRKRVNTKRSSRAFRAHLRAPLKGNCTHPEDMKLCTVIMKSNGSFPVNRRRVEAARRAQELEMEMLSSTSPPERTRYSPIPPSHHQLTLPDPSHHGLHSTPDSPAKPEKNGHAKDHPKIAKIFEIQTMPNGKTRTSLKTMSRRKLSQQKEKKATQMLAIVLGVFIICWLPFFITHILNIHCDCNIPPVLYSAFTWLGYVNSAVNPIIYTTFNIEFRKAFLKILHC", "test": "Radioligand competition binding, [3H]-N-methylspiperone, HEK293T membranes", "conditions": "DRD2; [3H]-methylspiperone (0.8-1.0 nM); read-out: Ki"}, "5HT1D": {"biological_target": "5HT1D (Homo sapiens, UniProt P28221)", "sequence (P28221 whole entry)": "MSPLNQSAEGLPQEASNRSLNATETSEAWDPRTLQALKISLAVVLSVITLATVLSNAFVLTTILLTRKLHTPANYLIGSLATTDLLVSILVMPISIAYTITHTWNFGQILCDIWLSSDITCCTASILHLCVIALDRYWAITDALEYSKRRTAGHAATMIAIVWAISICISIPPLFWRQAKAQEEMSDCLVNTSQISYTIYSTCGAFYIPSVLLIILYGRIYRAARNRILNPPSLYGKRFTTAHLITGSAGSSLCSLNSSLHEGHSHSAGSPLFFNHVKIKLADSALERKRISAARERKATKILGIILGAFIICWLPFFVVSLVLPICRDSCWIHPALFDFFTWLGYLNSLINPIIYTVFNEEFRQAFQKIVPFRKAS", "test": "β-arrestin2 recruitment (Tango)", "format": "cell-based", "conditions": "agonist activity only at high concentrations"}, "DRD4 (D4.4 variant)": {"biological_target": "T1, DRD4 (D4.4 variant) (Homo sapiens, UniProt P21917)", "T1 sequence (P21917 1-419)": "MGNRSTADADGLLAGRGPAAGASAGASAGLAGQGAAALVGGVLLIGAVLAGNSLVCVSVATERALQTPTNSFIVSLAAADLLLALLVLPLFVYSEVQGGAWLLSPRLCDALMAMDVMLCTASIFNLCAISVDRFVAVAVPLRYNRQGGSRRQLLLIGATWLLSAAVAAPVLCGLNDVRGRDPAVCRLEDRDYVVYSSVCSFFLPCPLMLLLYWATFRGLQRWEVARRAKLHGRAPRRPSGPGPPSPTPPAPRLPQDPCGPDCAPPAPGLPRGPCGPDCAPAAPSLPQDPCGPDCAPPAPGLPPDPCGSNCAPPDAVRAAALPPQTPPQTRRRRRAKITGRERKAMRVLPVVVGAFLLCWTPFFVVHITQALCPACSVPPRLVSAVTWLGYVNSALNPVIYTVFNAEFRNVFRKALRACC", "test": "β-arrestin2 recruitment (Tango)", "format": "cell-based", "conditions": "for Fig_S10c concentration-response source data, compound alone (replicates): agonist mode"}, "5HT2A": {"biological_target": "5HT2A (Homo sapiens, UniProt P28223)", "sequence (P28223 whole entry)": "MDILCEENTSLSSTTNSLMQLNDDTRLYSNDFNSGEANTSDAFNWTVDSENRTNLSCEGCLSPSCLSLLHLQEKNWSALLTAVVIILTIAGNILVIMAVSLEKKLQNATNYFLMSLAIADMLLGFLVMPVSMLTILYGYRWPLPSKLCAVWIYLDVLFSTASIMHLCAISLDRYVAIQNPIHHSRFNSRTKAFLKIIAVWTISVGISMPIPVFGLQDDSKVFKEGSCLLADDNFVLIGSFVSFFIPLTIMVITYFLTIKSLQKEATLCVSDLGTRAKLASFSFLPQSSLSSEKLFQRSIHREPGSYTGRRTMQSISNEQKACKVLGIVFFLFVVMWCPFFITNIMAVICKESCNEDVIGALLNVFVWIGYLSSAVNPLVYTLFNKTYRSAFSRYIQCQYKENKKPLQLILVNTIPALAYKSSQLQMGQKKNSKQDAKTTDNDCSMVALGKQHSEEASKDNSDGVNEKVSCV", "test": "β-arrestin2 recruitment (Tango)", "format": "cell-based", "conditions": "single replicate values"}, "5HT6": {"biological_target": "T2, 5HT6 (Homo sapiens, UniProt P50406)", "T2 construct": "expressed in transfected cells; host or cells: HTLA cells expressing TEV-fused β-arrestin2", "T2 sequence (P50406 whole entry, the tested form may be a part)": "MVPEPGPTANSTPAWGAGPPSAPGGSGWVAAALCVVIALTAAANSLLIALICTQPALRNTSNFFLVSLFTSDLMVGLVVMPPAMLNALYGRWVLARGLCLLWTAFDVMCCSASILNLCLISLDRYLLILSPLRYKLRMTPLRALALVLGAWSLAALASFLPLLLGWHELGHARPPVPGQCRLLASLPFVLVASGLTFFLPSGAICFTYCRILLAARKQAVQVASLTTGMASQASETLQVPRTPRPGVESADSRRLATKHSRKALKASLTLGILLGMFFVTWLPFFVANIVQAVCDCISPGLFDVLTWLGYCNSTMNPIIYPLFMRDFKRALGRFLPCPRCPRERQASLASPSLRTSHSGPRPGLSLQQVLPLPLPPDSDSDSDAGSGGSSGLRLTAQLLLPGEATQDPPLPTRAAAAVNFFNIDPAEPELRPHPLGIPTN", "test": "β-arrestin2 recruitment (Tango)", "format": "cell-based", "conditions": "Fig_S10p, agonist mode"}}, "note": "“And” between values parts separate entries of the source, which are not always exact repeats. Identical values can stand only once.", "data": [{"smiles": "CCOc1cccc2cc([C@H](C)NCC3(O)CCCCC3)oc12", "note": "[O4SE6]", "values": [{"measurement": "Ki", "setting": "[1]", "result": 4.57, "unit": "µM"}, {"measurement": "concentration at which the receptor is activated", "setting": "5HT1D", "result": "over 1 μM"}, {"measurement": "EC50", "setting": "DRD4 (D4.4 variant); DRD4, Tango, read-out: EC50 ± SEM", "result": "> 10", "unit": "µM"}, {"measurement": "Fig_S10c concentration-response source data, compound alone (replicates)", "setting": "DRD4 (D4.4 variant); Log[Drug] -5", "result": "6.217 and 2.763 and 2.001 and 1.287 and 1.775 and 4.058 and 4.003 and 0.06427 and 0.2106"}, {"measurement": "Fig_S10c concentration-response source data, compound alone (replicates)", "setting": "DRD4 (D4.4 variant); Log[Drug] -5.52", "result": "2.6039 and -1.106 and -1.946 and -0.4701 and 1.404 and 2.39 and 0.8979 and 0.0552 and 0.08381"}, {"measurement": "β-arrestin2 recruitment response at DRD4 (source data, replicate values)", "setting": "DRD4 (D4.4 variant); Log[Drug] -6", "result": 2.086}, {"measurement": "Fig_S10c concentration-response source data, compound alone (replicates)", "setting": "DRD4 (D4.4 variant); Log[Drug] -6", "result": "3.584 and -1.188 and -0.584 and -0.6588 and 0.8796 and 1.83 and 0.7762 and 0.03516 and 0.171"}, {"measurement": "β-arrestin2 recruitment response at DRD4 (source data, replicate values)", "setting": "DRD4 (D4.4 variant); Log[Drug] -6.52", "result": "1.505 and 1.478 and 5.593 and -1.936 and -0.8155 and 0.5983 and 2.508 and 1.037 and -0.4712"}, {"measurement": "Fig_S10c concentration-response source data, compound alone (replicates)", "setting": "DRD4 (D4.4 variant); Log[Drug] -6.52", "result": "1.007 and 4.325 and 1.323 and -0.8974 and 1.527 and -0.05366 and -0.1047 and 0.03541 and 0.08444"}, {"measurement": "β-arrestin2 recruitment response at DRD4 (source data, replicate values)", "setting": "DRD4 (D4.4 variant); Log[Drug] -7", "result": "2.288 and 4.238 and 0.7634 and -1.02 and 3.3404 and -2.026 and 1.575 and 0.945 and -0.6741"}, {"measurement": "Fig_S10c concentration-response source data, compound alone (replicates)", "setting": "DRD4 (D4.4 variant); Log[Drug] -7", "result": "1.079 and -1.731 and -1.221 and -1.369 and 0.6898 and 0.678 and 1.948 and 0.1059 and 0.1355"}, {"measurement": "β-arrestin2 recruitment response at DRD4 (source data, replicate values)", "setting": "DRD4 (D4.4 variant); Log[Drug] -7.52", "result": "1.649 and 0.1326 and 3.251 and -1.741 and -0.5217 and -0.1424 and -0.5236 and 0.6819 and 0.4869"}, {"measurement": "β-arrestin2 recruitment response at DRD4 (source data, replicate values)", "setting": "DRD4 (D4.4 variant); Log[Drug] -8", "result": "0.1559 and 0.6003 and -0.215 and 3.989 and -1.66 and -2.089 and 1.626 and 2.253 and 0.1073"}, {"measurement": "β-arrestin2 recruitment response at DRD4 (source data, replicate values)", "setting": "DRD4 (D4.4 variant); Log[Drug] -8.52", "result": "0.09319 and 0.08781 and 1.238 and -1.884 and -2.01 and 2.354 and 0.733 and 0.839 and 0.1558"}, {"measurement": "β-arrestin2 recruitment response at DRD4 (source data, replicate values)", "setting": "DRD4 (D4.4 variant); Log[Drug] -9", "result": "1.025 and 0.8745 and 0.8477 and 1.633 and -1.008 and -1.74 and 1.682 and 0.09555 and 2.31"}, {"measurement": "β-arrestin2 recruitment response at DRD4 (source data, replicate values)", "setting": "DRD4 (D4.4 variant); Log[Drug] -9.52", "result": "1.007 and 1.419 and 7.892 and -0.8689 and -1.296 and 0.8476 and 1.4149 and 0.894 and 0.2094"}, {"measurement": "β-arrestin2 recruitment response at DRD4 (source data, replicate values)", "setting": "DRD4 (D4.4 variant); Log[Drug] -10", "result": "1.797 and 0.7921 and 2.561 and -1.944 and -1.43 and -2.445 and 0.6793 and 0.5811 (2×)"}, {"measurement": "β-arrestin2 recruitment response at DRD4 (source data, replicate values)", "setting": "DRD4 (D4.4 variant); Log[Drug] -10.52", "result": "1.808 and 0.4319 and 2.3763 and 1.191 and 0.9847 and -1.294 and 0.1099 and -0.2474 and -0.3547"}, {"measurement": "β-arrestin2 recruitment response at DRD4 (source data, replicate values)", "setting": "DRD4 (D4.4 variant); Log[Drug] -11", "result": "0.1559 and 1.383 and -0.06631 and 0.9882 and -1.444 and -1.642 and 1.271 and -0.5746 and 1.065"}, {"measurement": "β-arrestin2 recruitment response at DRD4 (source data, replicate values)", "setting": "DRD4 (D4.4 variant); Log[Drug] -11.52", "result": "-0.1308 and 0.7778 and 1.385 and -1.934 and -1.503 and -0.7069 and -0.466 and 1.013 and -1.209"}, {"measurement": "Fig_S10k dose-response, drug alone (agonist mode), β-arrestin2 recruitment", "setting": "5HT2A; Log[Drug] -6.52", "result": 0.09538}, {"measurement": "Fig_S10k dose-response, drug alone (agonist mode), β-arrestin2 recruitment", "setting": "5HT2A; Log[Drug] -7", "result": "0.3962 and -0.2054 (2×) and 5.128 and 7.247 and 2.453 and 3.603 and 2.6312 and 1.871"}, {"measurement": "Fig_S10k dose-response, drug alone (agonist mode), β-arrestin2 recruitment", "setting": "5HT2A; Log[Drug] -7.52", "result": "1.849 and 5.363 and 7.4248 and 2.33 and -2.369 and -1.196 and 2.4436 and 3.608 and 1.304"}, {"measurement": "Fig_S10k dose-response, drug alone (agonist mode), β-arrestin2 recruitment", "setting": "5HT2A; Log[Drug] -8", "result": "0.1101 and -1.394 and 0.08804 and 0.4387 and -1.323 and -0.5329 and 3.218 and 3.021 and 2.073"}, {"measurement": "Fig_S10k dose-response, drug alone (agonist mode), β-arrestin2 recruitment", "setting": "5HT2A; Log[Drug] -8.52", "result": "0.3815 and 3.632 and -0.1981 and 19.2051 and 7.825 and 6.317 and 2.439 and 3.208 and 2.251"}, {"measurement": "Fig_S10k dose-response, drug alone (agonist mode), β-arrestin2 recruitment", "setting": "5HT2A; Log[Drug] -9", "result": "0.6676 and 2.15 and 0.4035 and 0.1625 and 2.551 and 3.851 and 2.828 and 4.478 and 2.251"}, {"measurement": "Fig_S10k dose-response, drug alone (agonist mode), β-arrestin2 recruitment", "setting": "5HT2A; Log[Drug] -9.52", "result": "4.806 and 0.08804 and -0.4842 and 4.631 and 0.2307 and -0.1755 and 1.9722 and 24.5707 and 1.991"}, {"measurement": "Fig_S10k dose-response, drug alone (agonist mode), β-arrestin2 recruitment", "setting": "5HT2A; Log[Drug] -10", "result": "-0.2054 and -0.7704 and 0.7117 and -0.5849 and 0.2632 and -1.306 and 3.401 and 3.333 and 0.9043"}, {"measurement": "Fig_S10k dose-response, drug alone (agonist mode), β-arrestin2 recruitment", "setting": "5HT2A; Log[Drug] -10.52", "result": "-0.4696 and 0.1247 and -0.7704 and 2.297 and 0.5134 and 0.234 and 6.104 and 1.842 and 5.349"}, {"measurement": "Fig_S10k dose-response, drug alone (agonist mode), β-arrestin2 recruitment", "setting": "5HT2A; Log[Drug] -11", "result": "-0.4842 and -0.7704 and -1.0785 and -0.00325 and -1.534 and 4.039 and 3.002 and 2.646 and 1.477"}, {"measurement": "Fig_S10k dose-response, drug alone (agonist mode), β-arrestin2 recruitment", "setting": "5HT2A; Log[Drug] -11.52", "result": "-0.2421 and 0.9685 and 5.092 and -0.6109 and 22.6335 and -1.787 and 6.47 and 2.973 and 3.016"}, {"measurement": "Fig_S10k dose-response, drug alone (agonist mode), β-arrestin2 recruitment", "setting": "5HT2A; Log[Drug] -12", "result": "13.3089 and 0.9391 and 1.555 and -1.157 and -0.9684 and -1.794 and 7.23 and 11.8669 and 5.71"}, {"measurement": "β-arrestin2 recruitment response, replicate points of concentration-response curve", "setting": "5HT6; Log[Drug] -6", "result": -0.3035}, {"measurement": "β-arrestin2 recruitment response, replicate points of concentration-response curve", "setting": "5HT6; Log[Drug] -6.52", "result": "1.0135 and 1.198 and 5.246 and -9.543 and -10.288 and -8.77 and 1.1615 and -3.588 and -1.1467"}, {"measurement": "β-arrestin2 recruitment response, replicate points of concentration-response curve", "setting": "5HT6; Log[Drug] -7", "result": "1.87 and 1.848 and 8.574 and -11.7696 and -2.512 and -8.797 and 0.1776 and -4.113 and -5.009"}, {"measurement": "β-arrestin2 recruitment response, replicate points of concentration-response curve", "setting": "5HT6; Log[Drug] -7.52", "result": "1.593 and -0.504 and 0.09756 and -12.1009 (2×) and -11.7328 and 60.6717 and -4.6608 and -1.753"}, {"measurement": "β-arrestin2 recruitment response, replicate points of concentration-response curve", "setting": "5HT6; Log[Drug] -8", "result": "1.669 and -1.382 and -0.2872 and -13.1683 and -12.0825 and -9.524 and -3.196 and -2.353 and 1.768"}, {"measurement": "β-arrestin2 recruitment response, replicate points of concentration-response curve", "setting": "5HT6; Log[Drug] -8.52", "result": "0.775 and 4.666 and 0.9864 and -12.4781 and -7.656 and -12.1009 and 0.3255 and -3.854 and 3.566"}]}]}
